Key:
[1] = system: Human prostate carcinoma DU145 cells; assay: Percent cell death of DU145 cells; format: cell-based; settings: 10% FBS, 50, 100 and 200 micromolars, 48 and 72 hours, compared with control and silymarin
Procedure: (§1) 1. Cells and Culture Conditions. Human prostate carcinoma DU145 cells were obtained from American Type Culture Collection (Bethesda, Md.), and cultured in RPMI 1640 containing 10% fetal bovine serum (FBS) and 1% penicillin-streptomycin under standard culture conditions. Alternatively, DU145 cells were cultured in 10% charcoal/dextran stripped FBS (cFBS) and 1% penicillin-streptomycin in the presence or absence of 1 nM DHT.
(§2) Silymarin and Silibinin derivatives were dissolved in ethanol for all the treatments. […] The dose and time of silibinin derivatives treatment are depicted in the associated drawings.
(§3) 2. Results. Referring to FIGS. 3 through 6, for the studies assessing the effect of silibinin derivatives on FBS-stimulated cell growth and cell death, DU145 cells were plated at 1×10^5 cells per 60 mm plate in RPMI 1640 containing 10% FBS and treated with either ethanol alone or varying concentrations of silymarin (“Si”) and silibinin derivatives (“D1” and “D2”) (50, 100 and 200 micromolars). Cells were counted at 48 and 72 hours after treatment with the subject compounds.
(§4) At the counting intervals, cells were trypsinized and collected in counting vials. Each plate was washed thoroughly with isotonic buffer containing 0.1% formalin and washings were collected in the original vials with trypsinized cells. Each vial was counted using Coulter Counter to determine the total cell number.

[2] = system: Human prostate carcinoma DU145 cells; assay: FBS-stimulated cell growth of DU145 cells (total cell number, Coulter Counter); format: cell-based; settings: 10% FBS, 50, 100 and 200 micromolars, counted at 48 and 72 hours, compared with control and silymarin
Procedure: as §1, §2, §3, §4

[3] = human, in vivo; cited from earlier work

Substance	percentage of cell death [1]	inhibition of cell growth [2]	tolerability / adverse effects [3]
2,3-Dihydro-3-[3,4-dimethoxyphenyl]-2-[hydroxymethyl]-5,7-dimethoxy-4-oxobenzopyran-2-yl]benzodioxin [Derivative #1]	likewise improved percentage of cell death	remarkably improved inhibition of cell growth over the control and silymarin	–
Silymarin	–	–	well tolerated and largely free of adverse effects

From patent US20020193424A1, “Human cancerous cell anti-proliferation and survival inhibition agent” (priority 2000, published 2002)
